Source: patent US12146004B2, “Polymyxin compounds and uses thereof” (priority 2014, dated 2024)
Values after ≈ are worked out from the molar mass of the structure shown. Read-outs that look alike come from different tables or passages of the source. Bridge positions count the residues as written; N and C are the ends. Square brackets hold non-standard residues; d marks the D form. Peptide text beside a SMILES is read from it. * marks the point of attachment. X16 = Cc1cc(C)cc(CO[C@@H](CCN)C(=O)*)c1; dCha = N[C@H](CC1CCCCC1)C(=O)O; Dab = NCC[C@H](N)C(=O)O; Dap = NC[C@H](N)C(=O)O

Legend:
Format in all cases: cell-based
HK-2 cells = test system: HK-2 cells
Excerpt: Values are reported relative to Polymyxin B.

Pseudomonas aeruginosa = test system: Pseudomonas aeruginosa
In short: (§1)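 MIC (μg/mL) from susceptibility testing; up to nine strains per species, incl. resistant and Polymyxin-elevated-MIC strains.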

Klebsiella pneumoniae = test system: Klebsiella pneumoniae
In short: as §1

Escherichia coli = test system: Escherichia coli
In short: as §1

Acinetobacter baumannii = test system: Acinetobacter baumannii
In short: as §1

Row | Molecule | HK-2 IC50 (HK-2 cells) | MIC P. aeruginosa 068 (Pseudomonas aeruginosa) | MIC P. aeruginosa 070 (Pseudomonas aeruginosa) | MIC P. aeruginosa ATCC 27853 (Pseudomonas aeruginosa) | MIC K. pneumoniae 062 (Klebsiella pneumoniae) | MIC K. pneumoniae 063 (Klebsiella pneumoniae) | MIC K. pneumoniae 064 (Klebsiella pneumoniae) | MIC K. pneumoniae 065 (Klebsiella pneumoniae) | MIC K. pneumoniae 067 (Klebsiella pneumoniae) | MIC K. pneumoniae ATCC 4352 (Klebsiella pneumoniae) | MIC E. coli 058 (Escherichia coli) | MIC E. coli 059 (Escherichia coli) | MIC E. coli 060 (Escherichia coli) | MIC E. coli 061 (Escherichia coli) | MIC E. coli ATCC 25922 (Escherichia coli) | MIC A. baumanii 053 (Acinetobacter baumannii) | MIC A. baumanii 056 (Acinetobacter baumannii) | MIC A. baumanii ATCC BAA-747 (Acinetobacter baumannii) | MIC K. pneumoniae 066 (Klebsiella pneumoniae) | also measured
1 | 2-(2- Aminoethyl) octanoyl L- Thr-L-Dap- polymyxin heptapeptide [Example C6, reference compound] |  |  |  |  |  |  |  |  |  |  |  |  |  |  |  |  |  |  |  | HK-2 IC50 (HK-2 cells; HK-2 cells): 51 µg/mL; MIC P. aeruginosa 068 (Pseudomonas aeruginosa; strain 068): 2 µg/mL; MIC P. aeruginosa 070 (Pseudomonas aeruginosa; strain 070): 8 µg/mL; MIC P. aeruginosa ATCC 27853 (Pseudomonas aeruginosa; strain ATCC 27853): 0.125 µg/mL; MIC P. aeruginosa CCUG 59347 (Pseudomonas aeruginosa; strain CCUG 59347): 0.125 µg/mL; MIC K. pneumoniae 063 (Klebsiella pneumoniae; strain 063): 8 µg/mL; MIC K. pneumoniae 065 (Klebsiella pneumoniae; strain 065): 0.25 µg/mL; MIC K. pneumoniae ATCC 4352 (Klebsiella pneumoniae; strain ATCC 4352): 0.06 µg/mL; MIC K. pneumoniae ATCC 13882 (Klebsiella pneumoniae; strain ATCC 13882): 0.125 µg/mL; MIC E. coli 058 (Escherichia coli; strain 058): 1 µg/mL; MIC E. coli 061 (Escherichia coli; strain 061): 8 µg/mL; MIC E. coli ATCC 25922 (Escherichia coli; strain ATCC 25922): 0.125 µg/mL; MIC E. coli NCTC 9001 (Escherichia coli; strain NCTC 9001): 0.06 µg/mL; MIC A. baumanii 053 (Acinetobacter baumannii; strain 053): 32 µg/mL; MIC A. baumanii 056 (Acinetobacter baumannii; strain 056): 32 µg/mL; MIC A. baumanii ATCC BAA-747 (Acinetobacter baumannii; strain ATCC BAA-747): 0.06 µg/mL; MIC A. baumanii NCTC 13424 (Acinetobacter baumannii; strain NCTC 13424): 0.03 µg/mL
2 | CC(C)CC1CNCC(C(=O)N[C@H](C(=O)N[C@@H](CN)C(=O)N[C@H]2CCNC(=O)[C@H]([C@@H](C)O)NC(=O)[C@H](CCN)NC(=O)[C@H](CCN)NC(=O)[C@H](CC(C)C)NC(=O)[C@@H](Cc3ccc(-c4ccccc4)cc3)NC(=O)[C@H](CCN)NC2=O)C(C)O)C1 (single isomer, unassigned; isomer 1) [Example 3, (trans-5-(isobutyl-piperidine)-3-carbonyl L-Thr-L-Dap-polymyxin [D-(4-phenyl)Phe]-6] heptapeptide. Isomer 1] | 34 µg/mL | 4 µg/mL (≈ 3.35 µM) | 4 µg/mL (≈ 3.35 µM) | 1 µg/mL (≈ 0.839 µM) | >64 µg/mL | >64 µg/mL | 32 µg/mL (≈ 26.8 µM) | 32 µg/mL (≈ 26.8 µM) | >64 µg/mL | 0.5 µg/mL (≈ 0.419 µM) | 8 µg/mL (≈ 6.71 µM) | 8 µg/mL (≈ 6.71 µM) | 16 µg/mL (≈ 13.4 µM) | 32 µg/mL (≈ 26.8 µM) | 0.5 µg/mL (≈ 0.419 µM) | 64 µg/mL (≈ 53.7 µM) | 4 µg/mL (≈ 3.35 µM) | 2 µg/mL (≈ 1.68 µM) |  | 
3 | CC(C)C[C@@H]1NC(=O)[C@@H](CC2CCCCC2)NC(=O)[C@H](CCN)NC(=O)[C@@H](NC(=O)[C@H](CN)NC(=O)[C@@H](NC(=O)CC(N)C2CCCCC2)C(C)O)CCNC(=O)[C@H]([C@@H](C)O)NC(=O)[C@H](CCN)NC(=O)[C@H](CCN)NC1=O (single isomer, unassigned; isomer 1) [Example 32, 3-amino-3-cyclohexylpropanoyl L-Thr-L-Dap-polymyxin [D-cyclohexylalanine]-6 heptapeptide. Isomer 1] | 73 µg/mL | 4 µg/mL (≈ 3.61 µM) | 4 µg/mL (≈ 3.61 µM) | 0.5 µg/mL (≈ 0.451 µM) |  | 16 µg/mL (≈ 14.4 µM) |  |  |  | 0.06 µg/mL (≈ 0.0541 µM) | 2 µg/mL (≈ 1.8 µM) |  |  | 16 µg/mL (≈ 14.4 µM) | 0.25 µg/mL (≈ 0.226 µM) |  | 64 µg/mL (≈ 57.7 µM) | 0.25 µg/mL (≈ 0.226 µM) |  | MIC P. aeruginosa CCUG 59347 (Pseudomonas aeruginosa): 0.5 µg/mL (≈ 0.451 µM); MIC K. pneumoniae ATCC 13882 (Klebsiella pneumoniae): 0.25 µg/mL (≈ 0.226 µM); MIC E. coli NCTC 9001 (Escherichia coli): 0.125 µg/mL (≈ 0.113 µM); MIC A. baumanii NCTC 13424 (Acinetobacter baumannii): 0.06 µg/mL (≈ 0.0541 µM)
4 | CCCCCCCCC1CNCC1C(=O)N[C@H](C(=O)N[C@@H](CCN)C(=O)N[C@H]1CCNC(=O)[C@H]([C@@H](C)O)NC(=O)[C@H](CCN)NC(=O)[C@H](CCN)NC(=O)[C@H](CC(C)C)NC(=O)[C@@H](Cc2ccc(-c3ccccc3)cc2)NC(=O)[C@H](CCN)NC1=O)C(C)O (single isomer, unassigned; isomer 2) [Example 8, trans-4-octylpyrrolidine-3-carbonyl polymyxin [D-(4-phenyl)Phe]-6] nonapeptide. Isomer 2] | 3 µg/mL | 2 µg/mL (≈ 1.6 µM) | 2 µg/mL (≈ 1.6 µM) | 1 µg/mL (≈ 0.801 µM) | 4 µg/mL (≈ 3.2 µM) |  | 1 µg/mL (≈ 0.801 µM) | 1 µg/mL (≈ 0.801 µM) | 8 µg/mL (≈ 6.41 µM) | 1 µg/mL (≈ 0.801 µM) | 2 µg/mL (≈ 1.6 µM) | 1 µg/mL (≈ 0.801 µM) | 2 µg/mL (≈ 1.6 µM) | 4 µg/mL (≈ 3.2 µM) | 1 µg/mL (≈ 0.801 µM) | 4 µg/mL (≈ 3.2 µM) | 2 µg/mL (≈ 1.6 µM) | 1 µg/mL (≈ 0.801 µM) | 0.5 µg/mL (≈ 0.4 µM) | 

The next lines start with results.

Row | HK-2 IC50 (HK-2 cells) | MIC P. aeruginosa 068 (Pseudomonas aeruginosa) | MIC P. aeruginosa 070 (Pseudomonas aeruginosa) | MIC P. aeruginosa ATCC 27853 (Pseudomonas aeruginosa) | MIC K. pneumoniae 062 (Klebsiella pneumoniae) | MIC K. pneumoniae 063 (Klebsiella pneumoniae) | MIC K. pneumoniae 064 (Klebsiella pneumoniae) | MIC K. pneumoniae 065 (Klebsiella pneumoniae) | MIC K. pneumoniae 067 (Klebsiella pneumoniae) | MIC K. pneumoniae ATCC 4352 (Klebsiella pneumoniae) | MIC E. coli 058 (Escherichia coli) | MIC E. coli 059 (Escherichia coli) | MIC E. coli 060 (Escherichia coli) | MIC E. coli 061 (Escherichia coli) | MIC E. coli ATCC 25922 (Escherichia coli) | MIC A. baumanii 053 (Acinetobacter baumannii) | MIC A. baumanii 056 (Acinetobacter baumannii) | MIC A. baumanii ATCC BAA-747 (Acinetobacter baumannii) | MIC K. pneumoniae 066 (Klebsiella pneumoniae) | Molecule | also measured
5 | 10 µg/mL |  |  | 1 µg/mL (≈ 0.819 µM) |  |  |  | 1 µg/mL (≈ 0.819 µM) |  | 0.5 µg/mL (≈ 0.41 µM) | 4 µg/mL (≈ 3.28 µM) |  |  |  | 1 µg/mL (≈ 0.819 µM) |  |  | 0.5 µg/mL (≈ 0.41 µM) |  | CC(C)CC(CN)C(=O)N[C@H](C(=O)N[C@@H](CN)C(=O)N[C@H]1CCNC(=O)[C@H]([C@@H](C)O)NC(=O)[C@H](CCN)NC(=O)[C@H](CCN)NC(=O)[C@H](CC(C)C)NC(=O)[C@@H](Cc2ccc(-c3ccc(C(F)(F)F)cc3)cc2)NC(=O)[C@H](CCN)NC1=O)C(C)O (single isomer, unassigned; isomer 1) [Example 20, 2-Aminomethyl-4-methyl pentanoyl polymyxin L-Thr-L-Dap-polymyxin [D-{4-(4-trifluoromethyl)phenyl} Phe]-6]heptapeptide. Isomer 1] | 
6 | 4 µg/mL | 2 µg/mL (≈ 1.6 µM) | 2 µg/mL (≈ 1.6 µM) | 2 µg/mL (≈ 1.6 µM) | 2 µg/mL (≈ 1.6 µM) | 8 µg/mL (≈ 6.41 µM) | 2 µg/mL (≈ 1.6 µM) | 1 µg/mL (≈ 0.801 µM) | 4 µg/mL (≈ 3.2 µM) | 1 µg/mL (≈ 0.801 µM) | 1 µg/mL (≈ 0.801 µM) | 1 µg/mL (≈ 0.801 µM) | 2 µg/mL (≈ 1.6 µM) | 2 µg/mL (≈ 1.6 µM) | 2 µg/mL (≈ 1.6 µM) | 4 µg/mL (≈ 3.2 µM) | 4 µg/mL (≈ 3.2 µM) | 1 µg/mL (≈ 0.801 µM) | 4 µg/mL (≈ 3.2 µM) | CCCCCCCCC1CNCC1C(=O)N[C@H](C(=O)N[C@@H](CCN)C(=O)N[C@H]1CCNC(=O)[C@H]([C@@H](C)O)NC(=O)[C@H](CCN)NC(=O)[C@H](CCN)NC(=O)[C@H](CC(C)C)NC(=O)[C@@H](Cc2ccccc2-c2ccccc2)NC(=O)[C@H](CCN)NC1=O)C(C)O (single isomer, unassigned; isomer 2) [Example 10, trans-4-octylpyrrolidine-3-carbonyl polymyxin [D-(2-phenyl)Phe]-6] nonapeptide. Isomer 2] | 
7 | 54 µg/mL | 1 µg/mL (≈ 0.837 µM) | 1 µg/mL (≈ 0.837 µM) | 0.25 µg/mL (≈ 0.209 µM) | 8 µg/mL (≈ 6.69 µM) | 4 µg/mL (≈ 3.35 µM) | 1 µg/mL (≈ 0.837 µM) | 0.5 µg/mL (≈ 0.418 µM) | 8 µg/mL (≈ 6.69 µM) | 0.125 µg/mL (≈ 0.105 µM) | 0.25 µg/mL (≈ 0.209 µM) | 1 µg/mL (≈ 0.837 µM) | 1 µg/mL (≈ 0.837 µM) | 1 µg/mL (≈ 0.837 µM) | 0.125 µg/mL (≈ 0.105 µM) | 8 µg/mL (≈ 6.69 µM) |  | 0.125 µg/mL (≈ 0.105 µM) | 1 µg/mL (≈ 0.837 µM) | CC(C)CC1CNCC(C(=O)N[C@H](C(=O)N[C@@H](CN)C(=O)N[C@H]2CCNC(=O)[C@H]([C@@H](C)O)NC(=O)[C@H](CCN)NC(=O)[C@H](CCN)NC(=O)[C@H](CC(C)C)NC(=O)[C@@H](Cc3ccc(Br)cc3)NC(=O)[C@H](CCN)NC2=O)C(C)O)C1 (single isomer, unassigned; isomer 2) [Example 12, (trans-5-(isobutyl-piperidine)-3-carbonyl L-Thr-L-Dap-polymyxin [D-(4-bromo Phe)]-6] heptapeptide Isomer 2] | 
8 |  | 4 µg/mL (≈ 3.41 µM) | 16 µg/mL (≈ 13.6 µM) | 0.125 µg/mL (≈ 0.106 µM) |  | 64 µg/mL (≈ 54.5 µM) |  | 4 µg/mL (≈ 3.41 µM) |  |  | 2 µg/mL (≈ 1.7 µM) |  |  | 16 µg/mL (≈ 13.6 µM) | 0.125 µg/mL (≈ 0.106 µM) | >64 µg/mL | 32 µg/mL (≈ 27.2 µM) | 0.125 µg/mL (≈ 0.106 µM) |  | Cc1cc(C)cc(CO[C@@H](CCN)C(=O)N[C@H](C(=O)N[C@@H](CN)C(=O)N[C@H]2CCNC(=O)[C@H]([C@@H](C)O)NC(=O)[C@H](CCN)NC(=O)[C@H](CCN)NC(=O)[C@H](CC(C)C)NC(=O)[C@@H](CC3CCCCC3)NC(=O)[C@H](CCN)NC2=O)[C@@H](C)O)c1 [Example 90, (S)-4-amino-2-((3,5-dimethylbenzyl)oxy)butanoyl L-Thr-L-Dap-polymyxin [D-cyclohexylalanine-6]heptapeptide] (X16-T[Dap][Dab][Dab][dCha]L[Dab][Dab]T; lactam 3-C) | MIC P. aeruginosa CCUG 59347 (Pseudomonas aeruginosa): 0.25 µg/mL (≈ 0.213 µM); MIC K. pneumoniae ATCC 13882 (Klebsiella pneumoniae): 0.25 µg/mL (≈ 0.213 µM); MIC E. coli NCTC 9001 (Escherichia coli): 0.125 µg/mL (≈ 0.106 µM); MIC A. baumanii NCTC 13424 (Acinetobacter baumannii): 0.06 µg/mL (≈ 0.0511 µM)
